Measured values from patent US20250281561A1, “APPLICATION OF LYCIUM BARBARUM LEAF EXTRACT IN PREPARING DRUG FOR TREATING DIABETIC RETINOPATHY” (NANJING UNIVERSITY OF CHINESE MEDICINE, priority 2025, published 2025).

Columns and labels:
[1] = system: p38, ERK and JNK genes in a MAPK pathway; assay: qPCR gene expression level (p38, ERK, JNK) in DR zebrafish; type: in vivo; details: crude drug dosage high 40 μg/mL, low 20 μg/mL, three days, compared with model group
Description: (§1) 3dpf zebrafish embryos were cultured in a 6-well plate, with 30 zebrafish embryos in each well. A model group and an administration group were cultured in 100 mg/mL circulating water, and divided into a Con group, a Mod group, a metformin (MET) group, a ST-H group, a ST-L group, a CT-H group, a CT-L group, a FT-H group, a FT-L group, a DT-H group, a DT-L group, a SWJ-H group, and a SWJ-L group. An administration dosage for the MET group was 200 μg/ml, and a crude drug dosage was converted for other administration groups, wherein a high dose was 40 μg/mL, and a low dose was 20 μg/mL. The zebrafish embryos were cultured for three days, and the water was replaced at a fixed time every day.
The cultured zebrafish embryos were collected into Ep tubes, and each tube was added with 1 mL of TRIZOL and then homogenized, and centrifuged at 4° C. and 12000× g for 10 minutes. A supernatant was taken, and other operations were as described in 2.3.

DR zebrafish [2] = assay: Retinal vascular diameter in DR zebrafish (fli1: EGFP, fluorescence microscope, ImageJ); type: in vivo; details: crude drug dosage high 40 μg/mL, low 20 μg/mL, three days, compared with model group
Description: as §1
3dpf fli1: EGFP zebrafish embryos were cultured by the method as described in 2.4, and 0.003% phenylthiourea (PTU) was added into circulating water to inhibit melanogenesis of the zebrafish embryos. After the culture was completed, the zebrafish embryos were collected, and fixed on a glass slide. The retinal vessels in the zebrafish were photographed by a fluorescence microscope, and a retinal vascular diameter was measured by ImageJ.

[3] = system: ARPE-19 cells with high glucose-induced damage; assay: Kit detection of oxidative stress level (GSH, SOD, MDA) in ARPE-19 cells with high glucose-induced damage; type: cell-based; details: summary statement
Description: (§2) Preparation method of active ingredient solution of Lycium barbarum leaf: 1 mg of freeze-dried powder of different active ingredients of Lycium barbarum leaf (Lycium barbarum leaf water extract, Lycium barbarum leaf ethanol extract, refined Lycium barbarum leaf extract, Lycium barbarum polysaccharide, and betaine) prepared in Embodiment 1 was weighed respectively, and dissolved in 1 mL of DMEM/F12 culture medium to prepare 1 mg/mL solution, and the solution was diluted to a required concentration with DMEM/F12 culture medium during administration, and filtered with a […] filter for sterilization.
(§3) The ARPE-19 cells were cultured in DMEM/F12 culture medium containing 10% FBS and 1% penicillin/streptomycin at 37° C. under 5% CO2. A model group was treated with 300 mM glucose, and the culture medium was added with a corresponding drug to culture the cells for 48 hours to complete the modeling.
The cells were inoculated into a 6-well plate during cell culture, and divided into a Con group, a Mod group, a ST-H group, a ST-L group, a CT-H group, a CT-L group, a FT-H group, a FT-L group, a DT-H group, a DT-L group, a SWJ-H group, and a SWJ-L group, wherein the high dose was 10 μg/mL and the low dose was 1 μg/mL. […] A GSH level, and SOD and MDA activities in the cells were detected according to a kit instruction.

DR zebrafish [4] = assay: Kit detection of glucose content and oxidative stress level (GSH, SOD, MDA) in DR zebrafish; type: in vivo
Description: as §1
Wild A/B-type zebrafish embryos were cultured according to the above method, and then the zebrafish embryos were collected into Ep tubes and then homogenized, and centrifuged at 4000 rpm for 10 minutes. A supernatant was taken, and GLU and GSH levels and SOD and MDA activities in cells were detected according to a kit instruction.

[5] = system: p38, ERK and JNK genes in a MAPK pathway; assay: qPCR gene expression level (p38, ERK, JNK) in ARPE-19 cells with high glucose-induced damage; type: cell-based; details: 10 μg/mL, compared with model group
Description: as §3
The cells were inoculated into a 6-well plate during cell culture, and divided into a Con group, a Mod group, a ST group, a CT group, a FT group, a DT group, and a SWJ group, wherein the administration dosage was 10 μg/mL. The cells were collected into Ep tubes and centrifuged at 1000 rpm for 5 minutes, and a supernatant was discarded. Each tube was added with 1 ml of Trizol reagent and blown violently for 15 seconds to mix fully and evenly, and the mixture was allowed to stand at room temperature for 2-3 minutes, and rotated at 4° C. for 1-2 hours. […] A concentration was determined by an ultra-micro ultraviolet spectrophotometer, and then the mixture was stored in a refrigerator at −80° C. for later use. […]
The reaction system was mixed fully and evenly, added to a 96-well PCR plate, centrifuged, and determined by a PCR machine. […] A CT value of a sample was determined, and then relative expressions of p38, JNK and ERK in the sample were calculated by a 2-ΔΔCT method.

[6] = system: ARPE-19 cells with high glucose-induced damage; assay: CCK8 survival rate of ARPE-19 cells with high glucose-induced damage; type: cell-based; details: 300 mM glucose, 48 hours; high dose 10 μg/mL, low dose 1 μg/mL; compared with model group
Description: as §2, with “sterilization. […]” for “sterilization.”
The cells were inoculated into a 96-well plate during culture, and divided into a control group (Con group), a model group (Mod group), a high-dose Lycium barbarum leaf water extract group (ST-H group), a low-dose Lycium barbarum leaf water extract group (ST-L group), a high-dose Lycium barbarum leaf ethanol extract group (CT-H group), a low-dose Lycium barbarum leaf ethanol extract group (CT-L group), […], a low-dose Lycium barbarum polysaccharide group (DT-L group), a high-dose betaine group (SWJ-H group), and a low-dose betaine group (SWJ-L group), wherein the high dose was 10 μg/mL and the low dose was 1 μg/mL. […] An absorbance was measured at 450 nm, and a cell survival rate was calculated.

[7] = system: ARPE-19 cells with high glucose-induced damage; assay: ROS content (H2FCDA fluorescence) in ARPE-19 cells with high glucose-induced damage; type: cell-based; details: high dose 10 g/mL, low dose 1 μg/mL, compared with model group
Description: as §3
The cells were inoculated into a 96-well plate during culture, and divided into a Con group, a Mod group, a ST-H group, a ST-L group, a CT-H group, a CT-L group, a FT-H group, a FT-L group, a DT-H group, a DT-L group, a SWJ-H group, and a SWJ-L group, wherein the high dose was […] and the low dose was 1 μg/mL. After the culture was completed, the culture medium was discarded, and a culture medium containing 1/1000 H2FCDA was added to incubate the cells at 37° C. for 30 minutes. A photo was taken by a fluorescence microscope at an excitation wavelength of 488 nm, and a fluorescence intensity was analyzed by ImageJ.

## C[N+](C)(C)CC(=O)O [betaine]
[1]
  relative mRNA expressions of p38, ERK and JNK: down-regulate expression levels
DR zebrafish [2]
  retinal vascular diameter: significantly reduce a retinal vascular diameter
[3]
  oxidative stress: improve oxidative stress
DR zebrafish [4]; DR zebrafish model, summary statement
  oxidative stress: improve oxidative stress
DR zebrafish [4]; DR zebrafish, crude drug dosage high 40 μg/mL, low 20 μg/mL, three days, compared with model group
  glucose content: reduce a glucose content in vivo
[5]
  relative mRNA expressions of p38, ERK and JNK: down-regulate expression levels
[6]
  survival rate of ARPE-19 cells: improve a survival rate
[7]
  ROS content (ROS fluorescence intensity): significantly reduce the generation of ROS
